Like-named read-outs stand apart in the source and are kept apart here. Values belong to the molecule of their own block, whether it stands above or below them.
Tests used:
[1] = Hygroscopicity test of various salts (Chinese Pharmacopoeia 2010, Part II, Appendix XIX J); assay type: physicochemical; details: HR = 80% ± 2
Procedure: The various acid addition salts of the compound of Formula I were tested according to “Guiding Principles for Drug Hygroscopicity Test” described in the Chinese Pharmacopoeia, 2010 edition, Part II, Appendix XIX J. The increased weights by hygroscopy of the samples were calculated respectively, and the results are shown in Table 11.

[2] = Stability test of various salts, high temperature and high humidity (Chinese Pharmacopoeia 2010, Part II, Appendix XIX C); assay type: physicochemical; details: for Purity before test: before high temperature and high humidity test
Procedure: The stability of the various acid addition salts of the compound of Formula I were tested according to the method described in the Chinese Pharmacopoeia, 2010 edition, Part II, Appendix XIX C.

[3] = Pharmacokinetic test in rats, single intragastric dose of 5 mg/kg; assay type: in vivo; details: male rats
Procedure: Healthy male adult rats (7-9 weeks old) were used, each group of animals (3 male rats) was intragastrically administered once at a single dose of 5 mg/kg. The animals in the intragastric administration group were fasted overnight before this study. The fasting time period was from 10 hours before administration to 4 hours after administration.
Blood samples were taken at 0.25, 0.5, 1, 2, 4, 6, 8 and 24 h after administration. The animals were anesthetized with isoflurane using a small animal anesthesia machine, and then 0.3 mL whole blood samples were taken from the fundus venous plexus. The blood samples were placed in heparin anticoagulant tubes, and centrifuged for 5 min at 4° C. and 4000 rpm. The resulting plasma samples were transferred to centrifuge tubes, and stored at −80° C. until analysis.
Verified liquid chromatography-tandem mass spectrometry (LC-MS/MS) method was used to analyze the plasma samples. Plasma concentration-time data of individual animals were analyzed using WinNonlin (Professional Edition, version 6.3; Pharsight Company) software. The non-compartmental model was introduced for concentration analysis. The pharmacokinetic parameters (PK parameters) of the compounds were calculated.

IDH2 (R172K, 40-end) = biological target: T1, IDH2 (R172K, 40-end) (Homo sapiens, UniProt P48735, R172K); experiment: Inhibitory activity test against IDH2 (NADPH decrease, diaphorase/resazurin fluorescence); assay type: biochemical
T1 sequence (P48735 40-452 R172K): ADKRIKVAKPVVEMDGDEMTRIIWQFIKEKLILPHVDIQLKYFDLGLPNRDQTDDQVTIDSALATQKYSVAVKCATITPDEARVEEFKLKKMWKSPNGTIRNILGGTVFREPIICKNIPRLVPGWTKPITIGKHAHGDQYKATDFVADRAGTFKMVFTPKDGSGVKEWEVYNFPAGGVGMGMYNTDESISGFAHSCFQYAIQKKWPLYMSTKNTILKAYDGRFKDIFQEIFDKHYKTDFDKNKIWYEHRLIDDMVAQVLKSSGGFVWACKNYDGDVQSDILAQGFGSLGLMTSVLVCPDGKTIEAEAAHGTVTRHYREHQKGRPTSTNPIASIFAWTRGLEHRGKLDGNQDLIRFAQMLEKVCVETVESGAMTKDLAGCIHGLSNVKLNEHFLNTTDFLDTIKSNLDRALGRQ
Procedure: The inhibitory activity of the compound of the present application against IDH2 (R172K, 40-end) was determined by using the following method.
The inhibitory activity of a compound against IDH2 (R172K, 40-end) was determined by the decrease of a helper factor NADPH (reduced coenzyme II). The test compound was pre-incubated with an enzyme and NADPH, and then a reaction was initiated by the addition of a-KG, and performed for 120 minutes under a linear condition. Then, the reaction was terminated by the addition of diaphorase (lipoamide dehydrogenase) and the corresponding substrate resazurin. Diaphorase terminated the IDH2m reaction by decreasing the available helper factor NADPH, which oxidized NADPH to NADP (oxidized coenzyme II), and reduced resazurin to highly fluorescent resorufin. The amount of remaining helper factor NADPH after a specific reaction time was quantified via an easily detectable fluorophore.
Specifically, 2.5 μl of a 3-fold gradient diluted test compound was added to a 384-well plate, and then 5 μl of a reaction buffer (20 mM Tris-HCl, PH7.5; 150 mM NaCl; 10 mM MgCl2; 10 mM MnCl2; 0.4 mg/ml BSA and 2 mM DTT) containing 80 nM IDH2 (R172K, 40-end) and 40 μM NADPH was added. Then, the resulting test mixture was incubated for 120 minutes at a temperature of 23° C., and then 2.5 μl of the reaction buffer containing 4 mM a-KG was added to initiate the reaction. After incubating for 120 minutes at room temperature, 5 μl of a termination mixture (0.4 U/ml diaphorase and 40 μM resazurin) prepared with the reaction buffer was added to convert resazurin to resorufin to determine the remaining NADPH.

[4] = Pharmacokinetic test in SD rats, intragastric 50 mg/kg of salts and crystalline forms; assay type: in vivo; details: 50 mg/kg (in free base)
Procedure: Number and gender: 20, males;
Twenty male SPF SD rats were randomly divided into 4 groups, fasted (free access to water) overnight, and then intragastrically administered with 50 mg/kg of the crystalline Form I of the mesylate of the compound of Formula I (Example 11), 50 mg/kg of the crystalline Form II of the mesylate of the compound of Formula I (Example 12), 50 mg/kg of the crystalline Form VIII of the mesylate of the compound of Formula I (Example 19) and 50 mg/kg of the hydrochloride salt of the compound of Formula I (Example 7), respectively (in basic group). Blood samples (0.2˜0.3 mL) were taken from the orbital of the rats at the blood collection time points 0.25 h, 0.5 h, 1 h, 2 h, 3 h, 4 h, 6 h, 8 h, 10 h, 24 h, 30 h and 48 h after administration. The whole blood collected was then placed in EDTA-K2 centrifuge tubes, stored at 4° C., and centrifuged for 10 min at a speed of 4000 rpm at 4° C. within 0.5 h to separate plasma. After the collection of all the plasma, it was stored at −20° C. within 1 h. Pharmacokinetic parameters (PK parameters) were calculated using DAS 3.2.1 software according to the non-compartment statistical moment theory, and the results are shown in Table 15.

[5] = system: relapsed and refractory AML; details: cited from earlier work
[6] = listed as The crystalline Form II of the mesylate of the compound of Formula I, 50 mg/kg
[7] = listed as The crystalline Form VIII of the mesylate of the compound of Formula I, 50 mg/kg
[8] = male, SD, rat, plasma, po, 50 mg/kg

Increased Weights by Hygroscopy [1]: 1.3% | Purity after high temperature and high humidity test [2]: 93.58% | Purity before test [2]: 99.30%
Structure (SMILES): CC(C)(C)ONc1nc(Nc2ccnc(C(F)(F)F)c2)nc(-c2cccc(C(F)(F)F)n2)n1.O=S(=O)(O)O [The sulfate (Example 8)]

Increased Weights by Hygroscopy [1]: 0.9% | Purity after high temperature and high humidity test [2]: 99.62% | Purity before test [2]: 98.85% | AUC(0-t) [4]: 48570.9 ng·h/mL | AUC(0-∞) [4]: 55252.1 ng·h/mL | Cmax [4]: 1642 ng/mL | MRT(0-t) [4]: 18.02 h | T1/2 [4]: 13.67 h | Tmax [4]: 10.6 h
Structure (SMILES): CC(C)(C)ONc1nc(Nc2ccnc(C(F)(F)F)c2)nc(-c2cccc(C(F)(F)F)n2)n1.Cl [The hydrochloride salt (Example 7)]

Increased Weights by Hygroscopy [1]: 0.7% | Purity after high temperature and high humidity test [2]: 97.63% | Purity before test [2]: 98.79%
Structure (SMILES): CC(C)(C)ONc1nc(Nc2ccnc(C(F)(F)F)c2)nc(-c2cccc(C(F)(F)F)n2)n1.Cc1ccc(S(=O)(=O)O)cc1 [The p-toluenesulfonate (Example 9)]

Increased Weights by Hygroscopy [1]: 2.2%
Structure (SMILES): CC(C)(C)ONc1nc(Nc2ccnc(C(F)(F)F)c2)nc(-c2cccc(C(F)(F)F)n2)n1.O=C(O)/C=C\C(=O)O [Maleate (Example 10)]

Second part, the molecule before the results:

Structure (SMILES): CC(C)(C)ONc1nc(Nc2ccnc(C(F)(F)F)c2)nc(-c2cccc(C(F)(F)F)n2)n1 [The compound of Formula I, 4-(tert-butoxyamino)-6-(6-(trifluoromethyl)pyridin-2-yl)-N-(2-(trifluoromethyl)pyridin-4-yl)-1,3,5-triazin-2-amine]
half-life (in words) [3]: long half-life | plasma concentration compared with AG-221 at the same dosage (in words) [3]: higher than AG-221 | inhibitory activity compared with AG-221 (in words) (IDH2 (R172K, 40-end); IDH2 (R172K, 40-end)): better inhibitory activity than AG-221 | IC50 (IDH2 (R172K, 40-end); IDH2 (R172K, 40-end), 80 nM enzyme, 40 μM NADPH, read-out: IC50): 32 nM

Structure (SMILES): CC(C)(C)ONc1nc(Nc2ccnc(C(F)(F)F)c2)nc(-c2cccc(C(F)(F)F)n2)n1.CS(=O)(=O)O [The mesylate (Example 12), 4-(tert-butoxyamino)-6-(6-(trifluoromethyl)pyridin-2-yl)-N-(2-(trifluoromethyl)pyridin-4-yl)-1,3,5-triazin-2-amine methanesulfonic acid salt]
AUC(0-t) [4, 6]: 42249 ng·h/mL | AUC(0-∞) [4, 6]: 43976 ng·h/mL | Cmax [4, 6]: 2102 ng/mL | MRT(0-t) [4, 6]: 15.0 h | T1/2 [4, 6]: 9.53 h | Tmax [4, 6]: 8.80 h

Structure (SMILES): CC(C)(C)ONc1nc(Nc2ccnc(C(F)(F)F)c2)nc(-c2cccc(C(F)(F)F)n2)n1.CS(=O)(=O)O [4-(tert-butoxyamino)-6-(6-(trifluoromethyl)pyridin-2-yl)-N-(2-(trifluoromethyl)pyridin-4-yl)-1,3,5-triazin-2-amine methanesulfonic acid salt]
Increased Weights by Hygroscopy [1]: 1.0% | Purity after high temperature and high humidity test [2]: 99.22% | Purity before test [2]: 98.82% | AUC(0-t) [4, 7]: 42249 ng·h/mL | AUC(0-∞) [4, 7]: 43976 ng·h/mL | Cmax [4, 7]: 2102 ng/mL | MRT(0-t) [4, 7]: 15.0 h | T1/2 [4, 7]: 9.53 h | Tmax [4, 7]: 8.80 h | AUC(0-inf) [4, 8]: 47400 ng·h/mL | half-life [4, 8]: 10.4 h | AUC(0-t) ([4]; male, SD, rat, plasma, po, 50 mg/kg, read-out: AUC(0-t)): 43900 ng·h/mL | Cmax ([4]; male, SD, rat, plasma, po, 50 mg/kg, read-out: Cmax): 1730 ng/mL | MRT last ([4]; male, SD, rat, plasma, po, 50 mg/kg, read-out: MRT(0-t)): 16.5 h | Tmax ([4]; male, SD, rat, plasma, po, 50 mg/kg, read-out: Tmax): 6.6 h

Structure (SMILES): CC(C)(O)CNc1nc(Nc2ccnc(C(F)(F)F)c2)nc(-c2cccc(C(F)(F)F)n2)n1 [AG-221, Enasidenib]
complete remission rate (CR) [5]: up to 27% | overall response rate (ORR) [5]: up to 41% | effective patients who insist on the treatment for at least 6 months ([5]; effective patients): 76% | effective patients with a stable condition ([5]; effective patients): 44% | IC50 (IDH2 (R172K, 40-end)): 68 nM

Source: patent publication US11021464B2, “Crystalline forms of 4-(tert-butoxyamino)-6-(6-(trifluoromethyl)pyridin-2-yl)-N-(2-(trifluoromethyl)pyridin-4-yl)-1,3,5-triazin-2-amine methanesulfonic acid salt” (CHIA TAI TIANQING PHARMACEUTICAL GROUP CO., LTD., priority 2017, dated 2021)
